Data published in ChEMBL document CHEMBL3351249, “Potent cholesteryl ester transfer protein inhibitors of reduced lipophilicity: 1,1'-spiro-substituted hexahydrofuroquinoline derivatives” (J Med Chem, 2014).

Tests used:
[1] = Terminal elimination half life in healthy human administered as single oral dose; assay type: ADME, organism-based; conditions: in vivo, read-out: beta t1/2 (converted)
[2] = target: T1, Cholesteryl ester transfer protein (Homo sapiens, UniProt P11597); test: Inhibition of human recombinant CETP by fluorescence transfer assay
T1 sequence (P11597 whole entry): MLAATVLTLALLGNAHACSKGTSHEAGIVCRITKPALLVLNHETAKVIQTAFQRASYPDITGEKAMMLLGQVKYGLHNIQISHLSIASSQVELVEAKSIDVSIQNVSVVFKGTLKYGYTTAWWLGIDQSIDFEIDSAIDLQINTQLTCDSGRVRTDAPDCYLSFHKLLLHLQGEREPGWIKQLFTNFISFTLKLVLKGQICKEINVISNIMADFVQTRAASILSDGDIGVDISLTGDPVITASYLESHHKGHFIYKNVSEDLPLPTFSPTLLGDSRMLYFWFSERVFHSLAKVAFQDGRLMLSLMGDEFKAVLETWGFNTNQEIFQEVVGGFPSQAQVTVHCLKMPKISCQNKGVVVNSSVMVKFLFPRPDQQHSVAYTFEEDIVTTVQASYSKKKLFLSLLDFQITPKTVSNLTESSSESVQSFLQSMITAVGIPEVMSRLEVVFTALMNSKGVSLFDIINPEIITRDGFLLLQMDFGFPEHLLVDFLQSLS

Compound	half-life [1]	IC50 [2]
Cc1cc(C)c2c(c1)[C@@H](N(Cc1cc(C(F)(F)F)cc(C(F)(F)F)c1)c1nnn(C)n1)CCCN2C[C@H]1CC[C@H](C(=O)O)CC1 [EVACETRAPIB]	44 h	
CC(C)c1nc2c(c3c1[C@@H](c1ccc(C(F)(F)F)cc1)OC31CCCC1)[C@@H](O)CC(C)(C)C2		51 nM
CC(C)c1nc2c(c3c1[C@@H](c1ccc(C(C)(C)C)cc1)OC31CCCC1)[C@@H](O)CC(C)(C)C2		29 nM

The remaining compounds from weak to strong by IC50 [2], led by results:

half-life [1]	IC50 [2]	Compound
	796 nM	CC(C)c1nc2c(c3c1[C@@H](c1ccc(F)cc1)OC31CCCC1)[C@@H](O)CC(C)(C)C2
	576 nM	CC(C)c1nc2c(c3c1[C@H](c1ccc(C(F)(F)F)cc1)OC31CCOCC1)[C@H](O)CC(C)(C)C2
	548 nM	CC(C)c1nc2c(c3c1[C@@H](c1ccc(C(F)(F)F)cc1)OC3(C)C)[C@@H](O)CC(C)(C)C2
